The source of these data is patent US6245817A, “NPY5 receptor antagonists and methods for using same” (Bayer Corporation, priority 1999, dated 2001).

By IC50 is commonly meant the concentration that inhibits the measured activity by half.

One experiment deals with T1, Human NPY1 Receptor (Homo sapiens, UniProt P25929).
T1 sequence (P25929 1-384): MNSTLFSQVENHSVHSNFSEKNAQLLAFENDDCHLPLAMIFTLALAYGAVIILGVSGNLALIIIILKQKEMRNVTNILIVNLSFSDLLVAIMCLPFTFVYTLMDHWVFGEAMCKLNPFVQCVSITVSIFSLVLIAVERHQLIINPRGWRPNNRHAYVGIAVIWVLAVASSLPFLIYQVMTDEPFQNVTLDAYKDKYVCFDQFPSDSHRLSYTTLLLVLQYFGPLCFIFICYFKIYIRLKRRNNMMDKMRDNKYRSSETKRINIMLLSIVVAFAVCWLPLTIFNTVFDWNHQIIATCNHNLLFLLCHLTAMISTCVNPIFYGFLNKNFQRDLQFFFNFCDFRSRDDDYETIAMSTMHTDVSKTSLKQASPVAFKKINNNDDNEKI
The experiment can be described thus: Human NPY1 Receptor Binding Assay. The settings on record: SK-N-MC cells, [125I]PYY; read-out: hNPY1 IC50.

In another experiment the target is Human NPY4/PP1 receptor (Homo sapiens, UniProt P50391). Description: Human NPY4/PP1 Receptor Binding Assay. The settings on record: [125I]human PP; read-out: hNPY4 IC50.
Human NPY4/PP1 receptor, sequence (P50391 whole entry): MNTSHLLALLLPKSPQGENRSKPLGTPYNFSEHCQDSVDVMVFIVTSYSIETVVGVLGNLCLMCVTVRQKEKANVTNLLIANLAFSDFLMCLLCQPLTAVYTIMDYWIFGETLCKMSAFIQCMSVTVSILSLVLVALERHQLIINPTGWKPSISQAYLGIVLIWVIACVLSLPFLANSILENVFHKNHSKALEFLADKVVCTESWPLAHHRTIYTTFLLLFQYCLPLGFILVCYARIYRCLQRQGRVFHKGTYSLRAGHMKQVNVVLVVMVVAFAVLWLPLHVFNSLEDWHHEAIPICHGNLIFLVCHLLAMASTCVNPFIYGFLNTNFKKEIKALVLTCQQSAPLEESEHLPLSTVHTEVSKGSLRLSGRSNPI
For another experiment, the target named is T2, Human NPY5 Receptor (Homo sapiens, UniProt Q15761).
T2 sequence (Q15761 1-445): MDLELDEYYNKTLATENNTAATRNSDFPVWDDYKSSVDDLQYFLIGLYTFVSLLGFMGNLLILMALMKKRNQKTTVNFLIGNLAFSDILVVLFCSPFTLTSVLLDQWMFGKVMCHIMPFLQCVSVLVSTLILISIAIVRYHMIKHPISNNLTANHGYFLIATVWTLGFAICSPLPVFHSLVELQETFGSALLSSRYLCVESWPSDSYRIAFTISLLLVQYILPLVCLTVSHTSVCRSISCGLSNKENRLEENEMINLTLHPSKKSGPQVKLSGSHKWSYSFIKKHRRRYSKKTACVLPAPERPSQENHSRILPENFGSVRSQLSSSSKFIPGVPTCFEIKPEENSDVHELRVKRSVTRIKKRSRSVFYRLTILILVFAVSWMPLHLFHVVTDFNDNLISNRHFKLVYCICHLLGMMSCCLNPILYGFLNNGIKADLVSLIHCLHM
Description: Human NPY5 Receptor Binding Assay. The note with it: [125I]PYY; read-out: hNPY5 IC50.

The target in another experiment is T3, Rat NPY5 Receptor (Rattus norvegicus, UniProt Q63634).
T3 sequence (Q63634 1-445): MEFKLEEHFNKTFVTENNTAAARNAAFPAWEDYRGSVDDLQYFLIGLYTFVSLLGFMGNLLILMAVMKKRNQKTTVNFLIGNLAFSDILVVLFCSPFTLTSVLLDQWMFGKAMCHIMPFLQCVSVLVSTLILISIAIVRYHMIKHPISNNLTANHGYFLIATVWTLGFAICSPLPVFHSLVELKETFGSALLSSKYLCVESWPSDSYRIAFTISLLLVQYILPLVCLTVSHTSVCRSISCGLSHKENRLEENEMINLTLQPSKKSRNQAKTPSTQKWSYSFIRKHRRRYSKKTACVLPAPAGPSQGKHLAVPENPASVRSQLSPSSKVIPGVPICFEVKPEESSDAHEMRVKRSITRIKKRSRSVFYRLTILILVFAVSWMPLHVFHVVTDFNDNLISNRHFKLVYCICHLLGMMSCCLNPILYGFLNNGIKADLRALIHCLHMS
Description: Rat NPY5 Receptor Binding Assay. The note with it: [125I]PYY; read-out: rNPY5 IC50.

A further experiment deals with T4, Human NPY2 receptor (Homo sapiens, UniProt P49146).
T4 sequence (P49146 1-381): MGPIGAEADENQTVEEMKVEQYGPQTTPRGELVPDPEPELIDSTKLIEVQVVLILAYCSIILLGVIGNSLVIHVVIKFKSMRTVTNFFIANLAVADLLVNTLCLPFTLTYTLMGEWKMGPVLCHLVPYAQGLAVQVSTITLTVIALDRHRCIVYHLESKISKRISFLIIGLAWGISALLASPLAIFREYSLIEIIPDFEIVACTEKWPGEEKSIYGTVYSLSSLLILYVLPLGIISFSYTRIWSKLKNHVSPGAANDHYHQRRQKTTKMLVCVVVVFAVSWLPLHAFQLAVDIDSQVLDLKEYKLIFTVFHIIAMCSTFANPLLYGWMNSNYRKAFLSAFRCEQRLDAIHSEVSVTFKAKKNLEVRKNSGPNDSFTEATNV
Description: Human NPY2 Receptor Binding Assay. The settings on record: [125I]PYY; read-out: hPPY2 IC50.

Structures can show the parent of a compound that is named as a salt.

Description for Human NPY2 receptor: Binding assays were performed on GF/C Millipore 96-well plates pretreated with 0.02% polyethylenimine. The binding buffer for rat Y2 binding is Krebs-Ringer bicarbonate (pH 7.4) containing 0.01% BSA and 0.005% bacitracin. Samples consist of membrane protein, 25 pM [125I]PYY and drug dilution. Nonspecific binding is defined by 1 μpM NPY.
After a 2 hour incubation at room temperature with constant mixing, the samples are aspirated on a vacuum manifold, and rinsed with ice-cold binding buffer. The amount of radioactivity in each well is quantitated with either gamma counting or liquid scintillation.
Description for Human NPY5 Receptor: Human and Rat NPY5 Receptor Binding Assays
Binding assays are performed on GF/C Millipore 96-well plates pretreated with 0.02% polyethylenimine. The binding buffer is 25 mM Tris, 120 mM NaCl, 5 mM KCl, 1.2 mM KH2 PO4, 2.5 mM CaCl2, 1.2 mM MgSO4, 0.1% BSA and 0.5 mg/ml bacitracin, pH 7.4. Samples consist of membrane protein, 75-100 pM [125I]PYY (porcine, NEN-DuPont) and drug dilution. Nonspecific binding is defined by 1 μM PYY. After a 2 hour incubation at room temperature with constant mixing, the samples are aspirated on a vacuum manifold, and rinsed with ice-cold binding buffer. The amount of radioactivity in each well is quantitated with either gamma counting or liquid scintillation. IC50 values, which correspond to 50% inhibition of specific binding, are determined with non-linear regression analysis.

Consider `Cn1c(CC2Sc3ccccc3NC2=O)nnc1SCC(=O)Nc1ccc(Cl)cc1` (stereo not drawn) [Compound 167, reference compound], for which the IC50 at Human NPY1 Receptor was more than 5 µM; on Human NPY4/PP1 receptor, more than 5 µM; at Human NPY5 Receptor, more than 10 µM; on Rat NPY5 Receptor, more than 10 µM.

`CCC(C)c1ccc(NC(=O)CSc2nncn2C)cc1` (stereo not drawn) [Compound 172, reference compound]: the IC50 on Human NPY1 Receptor was more than 5 µM; on Human NPY4/PP1 receptor, more than 5 µM; at Human NPY5 Receptor, 2.3 µM; on Rat NPY5 Receptor it was 2 µM.

Regarding `CCn1c(SCC(=O)Nc2cc(C)ccc2OC)nnc1C(F)(F)F` [Compound 157, N-(2-Methoxy-5-methyl-phenyl)-2-(4-ethyl-5-trifluoromethyl-4H-[1,2,4]triazol-3-ylsulfanyl)-acetamide, reference compound], the IC50 on Human NPY1 Receptor was more than 5 µM; on Human NPY4/PP1 receptor, more than 5 µM; on Human NPY5 Receptor it was more than 10 µM; at Rat NPY5 Receptor, more than 10 µM.

Turning to `Cn1c(Cc2ccsc2)nnc1SCC(=O)Nc1ccc(Cl)cc1` [Compound 168, N-(4-Chloro-phenyl)-2-(4-methyl-5-thiophen-3-ylmethyl-4H-[1,2,4]triazol-3-ylsulfanyl)-acetamide, reference compound], the half-inhibitory concentration (IC50) on Human NPY1 Receptor is more than 5 µM; at Human NPY4/PP1 receptor it was more than 5 µM; on Human NPY5 Receptor it was more than 10 µM; at Rat NPY5 Receptor, more than 10 µM.

With `CC(C)c1ccc(NC(=O)CSc2nnc(Cc3ccsc3)n2C)cc1` [Compound 158, N-(4-isopropyl-phenyl)-2-(4-methyl-5-thiophen-3-ylmethyl-4H-[1,2,4]triazol-3-ylsulfanyl)-acetamide, reference compound], the 50% inhibitory concentration (IC50) at Human NPY1 Receptor is more than 5 µM; at Human NPY4/PP1 receptor, more than 5 µM; on Human NPY5 Receptor, more than 10 µM; at Rat NPY5 Receptor, more than 10 µM.

Consider `COC(Cn1c(SCC(=O)Nc2ccc(C(C)C)cc2)nnc1-c1ccc(Cl)cc1)OC` [Compound 166, 2-[5-(4-Chloro-phenyl)-4-(2,2-dimethoxy-ethyl)-4H-[1,2,4]triazol-3-ylsulfanyl]-N-(4-isopropyl-phenyl)-acetamide, reference compound], for which the half-maximal inhibitory concentration (IC50) at Human NPY1 Receptor is more than 5 µM; at Human NPY4/PP1 receptor, more than 5 µM; at Human NPY5 Receptor, more than 10 µM; at Rat NPY5 Receptor, more than 10 µM.

On to `COC(Cn1c(SCC(=O)Nc2ccc(Cl)cc2)nnc1-c1ccccc1)OC` [Compound 162, N-(4-Chloro-phenyl)-2-(4-(2,2-dimethoxy-ethyl)-5-phenyl-4H-[1,2,4]triazol-3-ylsulfanyl]-acetamide, reference compound], for which the half-maximal inhibitory concentration (IC50) is more than 5 µM on Human NPY1 Receptor, more than 5 µM on Human NPY4/PP1 receptor, more than 10 µM on Human NPY5 Receptor and more than 10 µM on Rat NPY5 Receptor.

For the molecule `Cc1cc(-c2nc(C)c(-c3nnc(SCC(=O)Nc4ccc(Cl)cc4)n3C)s2)no1` [Compound 169, reference compound], the IC50 at Human NPY1 Receptor is more than 5 µM; on Human NPY4/PP1 receptor it was more than 5 µM; at Human NPY5 Receptor, more than 10 µM; at Rat NPY5 Receptor, more than 10 µM.

In the case of `COC(Cn1c(SCC(=O)Nc2ccc(Cl)cc2)nnc1-c1ccc(Cl)cc1)OC` [Compound 161, N-(4-Chloro-phenyl)-2-[5-(4-chloro-phenyl)-4-(2,2-dimethoxy-ethyl)-4H-[1,2,4]triazol-3-ylsulfanyl]-ecetamide, reference compound], the concentration for half-maximal inhibition (IC50) is more than 5 µM on Human NPY1 Receptor, more than 5 µM on Human NPY4/PP1 receptor, more than 10 µM at Human NPY5 Receptor and more than 10 µM at Rat NPY5 Receptor.

Take `CSc1sc(-c2nnc(SCC(=O)Nc3ccc(Cl)cc3)n2C)c2c1C=CCC2` [Compound 159, N-(4-Chloro-phenyl)-2-[4-methyl-5-(3-methylsulfanyl-6,7-dihydro-benzo[c]thiophen-1-yl)-4H-[1,2,4]triazol-3-ylsulfanyl]-acetamide, reference compound]: the half-inhibitory concentration (IC50) at Human NPY1 Receptor was more than 5 µM; on Human NPY4/PP1 receptor, more than 5 µM; at Human NPY5 Receptor, more than 10 µM; at Rat NPY5 Receptor, more than 10 µM.

`Cc1ccc(NC(=O)CSc2nncn2C)cc1` [Compound 174, 2-(4-Methyl-4H-[1,2,4]triazol-3-ylsulfanyl)-N-p-tolyl-acetamide, reference compound]: the 50% inhibitory concentration (IC50) on Human NPY1 Receptor was more than 5 µM; at Human NPY4/PP1 receptor, more than 5 µM; on Human NPY5 Receptor it was more than 10 µM; at Rat NPY5 Receptor, more than 10 µM.

For `Cc1ccc(SCC(=O)Nc2ccc(C3CCCCC3)cc2)cc1` [Compound 183, reference compound], the IC50 at Human NPY4/PP1 receptor is more than 5 µM; on Human NPY5 Receptor, 1.3 µM; at Rat NPY5 Receptor, 1.2 µM; on Human NPY2 receptor it was more than 5 µM.

For `Cn1cnnc1SCC(=O)Nc1ccc(C2CCCCC2)cc1` [Compound 173, N-(4-Cyclohexyl-phenyl)-2-(4-methyl-4H-[1,2,4]triazol-3-ylsulfanyl)-acetamide, reference compound], the IC50 at Human NPY1 Receptor was more than 5 µM; at Human NPY4/PP1 receptor it was more than 5 µM; on Human NPY5 Receptor, 0.08 µM; on Rat NPY5 Receptor, 0.073 µM.

Turning to `Cn1c(SCC(=O)Nc2ccc(Cl)cc2)nnc1-c1ncc(C(F)(F)F)cc1Cl` [Compound 160, reference compound], the IC50 was more than 5 µM on Human NPY1 Receptor, more than 5 µM at Human NPY4/PP1 receptor, more than 10 µM at Human NPY5 Receptor and more than 10 µM on Rat NPY5 Receptor.

Turning to `Cc1ccnc(SCC(=O)Nc2ccc(C3CCCCC3)cc2)n1` [Compound 5, N-(4-Cyclohexyl-phenyl)-2-(4-methyl-pyrimidin-2-ylsultanyl)-acetamide Hydrochloride], the IC50 on Human NPY4/PP1 receptor is more than 5 µM; on Rat NPY5 Receptor, more than 1 µM; at Human NPY2 receptor, more than 5 µM.

Take `COC(Cn1c(SCC(=O)Nc2ccc(C(C)C)cc2)nnc1-c1ccccc1)OC` [Compound 163, 2-[4-(2,2-Dimethoxy-ethyl)-5-phenyl-4H-[1,2,4]triazol-3-ylsulfanyl]-N-(4-isopmpyl-phenyl)-acetamide, reference compound]: the IC50 was more than 5 µM on Human NPY1 Receptor, more than 5 µM at Human NPY4/PP1 receptor, more than 10 µM at Human NPY5 Receptor and more than 10 µM on Rat NPY5 Receptor.

In the case of `CC(C)c1ccc(NC(=O)CSc2nnc(CSc3cccs3)n2C)cc1` [Compound 153, reference compound], the IC50 on Human NPY1 Receptor is more than 5 µM; on Human NPY4/PP1 receptor, more than 5 µM; on Human NPY5 Receptor it was more than 10 µM; at Rat NPY5 Receptor, more than 10 µM.

Consider `CC(C)c1ccc(NC(=O)CSc2nc3cc(C(F)(F)F)ccc3n2C(C)C)cc1` [Compound 165, N-(4-Isopropyl-phenyl)-2-(1-isopropyl-5-trifluoromethyl-1H-benzolmidazol-2-ylsulfanyl)-acetamide, reference compound], for which the IC50 on Human NPY1 Receptor is more than 5 µM; on Human NPY4/PP1 receptor, more than 5 µM; at Human NPY5 Receptor it was more than 10 µM; at Rat NPY5 Receptor, more than 10 µM.

On to `Cc1cc(-c2nnc(SCC(=O)Nc3ccccc3)n2C)no1` [Compound 150, 2-[4-Methyl-5-(5-methyl-isoxazol-3-yl)-4H-[1,2,4]triazol-3-ylsulfanyl]-N-phenyl-acetamide, reference compound], for which the IC50 was more than 5 µM on Human NPY1 Receptor, more than 5 µM at Human NPY4/PP1 receptor, more than 10 µM at Human NPY5 Receptor and more than 10 µM on Rat NPY5 Receptor.
